Experimental data as given in patent US8901157B2, “Compositions and methods of use of ritonavir for treating HCV” (AbbVie Inc., priority 2006, dated 2014).
Where two headings read alike, the source gives them in different places. Blank lines part the entries; values can stand above or below the compound they belong to.

What was measured:
[1] = Pharmacokinetics of SCH 503034 in rats, with or without coadministered ritonavir; format: in vivo, Sprague-Dawley derived rats; conditions: rat; for half-life: mean; for Cmax: po, 5 mg/kg; for C8 h: plasma at 8 h
in vitro [2] = format: in vitro ADME; conditions: human, pH 7.4, human liver microsomes, read-out: Percent Inhibition of Metabolism by Ritonavir
Method: (§1) Liquid handling was carried out on a Tecan EVO robotic system. Triplicate incubations were carried out at a final test compound concentration of 1 μM with 0.5 mg/ml microsomal protein, and 1 mM NADPH. Pooled human liver microsomes (1 mg/ml protein) and NADPH cofactor (2 mM) were prepared in 50 mM phosphate buffer at pH 7.4. Stock solutions (10 mM) of VX-950 or SCH 503034 were prepared in DMSO and then diluted to 100 μM in 1:1 acetonitrile/water. The solutions of compounds were added into the NADPH cofactor solution containing 0, 0.8 or 8 μM of ritonavir in a 2 ml 96-well plate. The resulting solution was added to the microsomes (1:1) that had been pre-incubated for 10 minutes at 37° C. Samples (0.1 ml) were incubated in 96-well plates at 37° C. for 0, 10, 20 and 30 min in a Tecan 4-slot incubator. At each time point, the robotic arm removed one of the replicate plates and the reactions were stopped by adding 1 volume (100 μl) of acetonitrile with internal standard (0.05 μM buspirone) to each well. All plates were centrifuged at 3500 rpm for 30 min, and the supernatant was transferred to a 96-well injection plate. The plates were stored at 4° C. until analyzed.
(§2) LC-MS/MS analysis: The samples were analyzed in positive mode using the turbospray ion source of PE/Sciex API 4000 Q-Trap mass spectrometer with Shimadzu HPLC system. Samples were injected (5 μL) onto a Lancer C18 column (5 μm, 30×2.1 mm) from Analytical Sales and Services Inc. (Pompton Plains, N.J.) and separation occurred via a gradient: The flow rate was 0.5 mL/min; starting conditions of 7.5% B, 2.5% C, increasing to 30% B and 10% C at 0.4 min. […] Mobile phase A was 95/5 water/methanol (v/v) with 10 mM ammonium acetate and 60 μL/L acetic acid. Mobile phase B was methanol containing 10 mM ammonium acetate and 60 μL/L acetic acid. Mobile phase C was acetonitrile.
Using the above conditions, the presence of ritonavir inhibited the metabolism of VX-950 and SCH 503034 in the following manner:
Metabolism of VX-950 and SCH 503034 in Human Liver Microsomes in the Absence or Presence of Ritonavir

in vivo = conditions: Sprague-Dawley, rat, 5 mg/kg
in vitro [3] = format: in vitro ADME; conditions: rat, pH 7.4, rat liver microsomes, read-out: Percent Inhibition of Metabolism by Ritonavir
Method: as §1, §2
Using the procedure of Example 1, but substituting rat liver microsomes for human liver microsomes, the presence of ritonavir inhibited the metabolism of VX-950 and SCH 503034 in the following manner: […]

[4] = Pharmacokinetics of VX-950 in rats, with or without coadministered ritonavir; conditions: rat; for half-life: Sprague-Dawley, plasma, 5 mg/kg
[5] = Sprague-Dawley, rat, in vivo, 5 mg/kg
[6] = Sprague-Dawley, plasma, PO 5 mg/kg, no ritonavir, mean (SEM), n=3
[7] = PO 5 mg/kg, no ritonavir, mean (SEM), n=3

AUC ([1]; Sprague-Dawley, plasma, IV 5 mg/kg, mean (SEM), n=3): 3.12 µg·h/mL
clearance ([1]; Sprague-Dawley, plasma, IV 5 mg/kg, mean (SEM), n=3, read-out: CLp (converted)): 2.04 L/h/kg
Vd ([1]; Sprague-Dawley, plasma, IV 5 mg/kg, mean (SEM), n=3, read-out: Vss): 0.53 L/kg
half-life ([1]; Sprague-Dawley, plasma, IV 5 mg/kg, n=3): 0.3 h
AUC [1, 6]: 0.11 µg·h/mL
AUC(0-t) ([1]; Sprague-Dawley, plasma, PO+ = 5 mg/kg oral SCH 503034 + 5 mg/kg oral ritonavir, mean (SEM), n=3, read-out: AUC (0-8 hr AUC)): 2.18 µg·h/mL
half-life ([1]; Sprague-Dawley, plasma, PO+ = 5 mg/kg oral SCH 503034 + 5 mg/kg oral ritonavir, n=3): 2.5 h
Cmax [1, 6]: 0.07 µg/mL
Cmax ([1]; Sprague-Dawley, plasma, PO+ = 5 mg/kg oral SCH 503034 + 5 mg/kg oral ritonavir, mean (SEM), n=3): 0.52 µg/mL
plasma levels on coadministering with ritonavir ([1]; 5 mg/kg oral SCH 503034 + 5 mg/kg oral ritonavir vs SCH 503034 alone, FIG. 3): substantially elevated
Vβ ([1]; IV 5 mg/kg, mean (SEM), n=3): 0.92 (0.29) L/kg
F [1, 7]: 3.5 (1.5) %
C8 h ([1]; PO 5 mg/kg, no ritonavir): <0.001
F ([1]; PO+ = 5 mg/kg oral SCH 503034 + 5 mg/kg oral ritonavir, mean (SEM), n=3): 70.1 (7.0) %
C8 h ([1]; PO+ = 5 mg/kg oral SCH 503034 + 5 mg/kg oral ritonavir): 0.076
Structure (SMILES): CC(C)(C)NC(=O)N[C@H](C(=O)N1C[C@H]2[C@@H]([C@H]1C(=O)NC(CC1CCC1)C(=O)C(N)=O)C2(C)C)C(C)(C)C (some centres unmarked) [SCH 503034, 3-[2-(3-tert-butyl-ureido)-3,3-diemthyl-butyryl]-6,6-dimethyl-3-aza-bicyclo[3.1.0]hexane-2-carboxylic acid (2-carbamoyl-1-cyclobutylmethyl-2-oxo-ethyl)-amide]

Structure (SMILES): CCC[C@H](NC(=O)[C@@H]1[C@H]2CCC[C@H]2CN1C(=O)[C@@H](NC(=O)[C@@H](NC(=O)c1cnccn1)C1CCCCC1)C(C)(C)C)C(=O)C(=O)NC1CC1 [VX-950, 2-(2-{2-cyclohexyl-2[(pyrazine-2-carbonyl)-amino]-acetylamino}-3,3-dimethyl-butyryl)-octahydro-cyclopenta[c]pyrrole-1-carboxylic acid(1-cyclopropylaminooxalyl-butyl)-amide]
inhibition at 1 μM (in vitro [2]; ritonavir 0 micromolar): 0%
inhibition at 1 μM (in vitro [2]; ritonavir 0.4 micromolar): 72%
inhibition at 1 μM (in vitro [2]; ritonavir 4.0 micromolar): 100%
AUC (in vivo; iv): 3.03 µg·h/mL
Vd (in vivo; iv): 2.4 L/kg
clearance (in vivo; iv): 1.7 L/h/kg
AUC (in vivo; po): 1.05 µg·h/mL
Tmax (in vivo; po, Tmax): 1.1 h
inhibition at 30 min, 1 μM (in vitro [3]; ritonavir 0 micromolar): 0%
inhibition at 30 min, 1 μM (in vitro [3]; ritonavir 0.4 micromolar): 61%
inhibition at 30 min, 1 μM (in vitro [3]; ritonavir 4.0 micromolar): 100%
half-life ([4]; iv): 2.8 h
half-life ([4]; po): 1.7 h
Cmax [4, 7]: 0.43 (0.15) μg/ml
Vβ ([5]; iv): 8.1 (2.6) L/kg
F ([5]; po): 34.8 (11.0) %
C8 h ([5]; po, 8 h): 0.018
